Data published in ChEMBL document CHEMBL1201862, “PubChem BioAssay data set” (2004).
Calls of active or inactive are those of the source.

How the values were obtained:
[1] = target: Induced myeloid leukemia cell differentiation protein Mcl-1 (Homo sapiens, UniProt Q07820); format: functional
[2] = target: T1, High affinity choline transporter 1 (Homo sapiens, UniProt Q9GZV3); experiment: CHT inhibitors, dose response, cell-based, 5-point CRC, membrane potential dye (AID 504840); format: functional
T1 sequence (Q9GZV3 whole entry): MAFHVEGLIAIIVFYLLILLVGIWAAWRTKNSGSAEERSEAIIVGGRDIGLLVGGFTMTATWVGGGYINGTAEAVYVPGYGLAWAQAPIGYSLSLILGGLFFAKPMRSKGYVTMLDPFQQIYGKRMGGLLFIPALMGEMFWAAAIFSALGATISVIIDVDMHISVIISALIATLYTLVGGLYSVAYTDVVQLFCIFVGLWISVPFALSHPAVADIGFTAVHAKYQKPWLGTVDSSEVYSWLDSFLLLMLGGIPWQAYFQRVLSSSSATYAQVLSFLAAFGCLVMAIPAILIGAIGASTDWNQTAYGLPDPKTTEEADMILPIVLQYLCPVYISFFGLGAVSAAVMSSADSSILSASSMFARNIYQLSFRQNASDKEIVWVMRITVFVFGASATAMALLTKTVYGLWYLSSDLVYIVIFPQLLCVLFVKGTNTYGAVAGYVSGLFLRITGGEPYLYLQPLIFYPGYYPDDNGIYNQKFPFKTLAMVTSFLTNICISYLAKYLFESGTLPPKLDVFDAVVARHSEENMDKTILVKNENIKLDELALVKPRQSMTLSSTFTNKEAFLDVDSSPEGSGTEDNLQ

Nonstructural protein 1 = Nonstructural protein 1 (Influenza A virus, UniProt Q194T2); format: functional, Influenza A virus (A/California/07/2009(H1N1))
Vero = experiment: cells; format: functional; conditions: Chlorocebus sabaeus
[3] = cytotoxicity in HEK-293T cells, dose response, cytotoxicity control for TCR NF-kB inhibitor project, luminescence, T-cell screen hits (AID 489026); format: functional, cell-based;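 also: cells exposed to compound about 14 hours before the viability readout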
[4] = target: T2, Microphthalmia-associated transcription factor (Homo sapiens, UniProt O75030); experiment: TRPM1 promoter luciferase signal decrease, dose response, MITF inhibitor project, cell-based, SK-MEL-5, cherry-picked, set 3 (AID 493073); format: functional
T2 sequence (O75030 whole entry): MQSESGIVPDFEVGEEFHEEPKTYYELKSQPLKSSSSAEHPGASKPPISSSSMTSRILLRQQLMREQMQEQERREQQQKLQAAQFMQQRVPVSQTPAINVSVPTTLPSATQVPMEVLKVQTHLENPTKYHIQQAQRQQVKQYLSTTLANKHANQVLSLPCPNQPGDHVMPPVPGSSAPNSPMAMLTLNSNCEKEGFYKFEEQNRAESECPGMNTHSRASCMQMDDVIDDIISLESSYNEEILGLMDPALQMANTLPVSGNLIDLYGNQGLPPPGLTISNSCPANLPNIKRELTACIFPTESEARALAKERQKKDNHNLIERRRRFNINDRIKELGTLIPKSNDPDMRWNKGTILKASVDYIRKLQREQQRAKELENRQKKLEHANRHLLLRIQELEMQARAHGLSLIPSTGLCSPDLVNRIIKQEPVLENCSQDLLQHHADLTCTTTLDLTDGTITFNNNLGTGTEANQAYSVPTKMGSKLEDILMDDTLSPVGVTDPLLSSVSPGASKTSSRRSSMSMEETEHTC

[5] = target: T3, Heat shock factor protein 1 (Mus musculus, UniProt P38532); experiment: inhibition of MG132-induced HSE-luciferase signal, confirmation, cell-based, NIH3T3, luminescence, dose retest (AID 2382); format: functional;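 also: NIH3T3 fibroblasts with HSF1-driven luciferase reporter stressed by proteasome inhibitor MG132; luminescence from HSF1-driven luciferase expression after 8 hours of MG132 stress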
T3 sequence (P38532 whole entry): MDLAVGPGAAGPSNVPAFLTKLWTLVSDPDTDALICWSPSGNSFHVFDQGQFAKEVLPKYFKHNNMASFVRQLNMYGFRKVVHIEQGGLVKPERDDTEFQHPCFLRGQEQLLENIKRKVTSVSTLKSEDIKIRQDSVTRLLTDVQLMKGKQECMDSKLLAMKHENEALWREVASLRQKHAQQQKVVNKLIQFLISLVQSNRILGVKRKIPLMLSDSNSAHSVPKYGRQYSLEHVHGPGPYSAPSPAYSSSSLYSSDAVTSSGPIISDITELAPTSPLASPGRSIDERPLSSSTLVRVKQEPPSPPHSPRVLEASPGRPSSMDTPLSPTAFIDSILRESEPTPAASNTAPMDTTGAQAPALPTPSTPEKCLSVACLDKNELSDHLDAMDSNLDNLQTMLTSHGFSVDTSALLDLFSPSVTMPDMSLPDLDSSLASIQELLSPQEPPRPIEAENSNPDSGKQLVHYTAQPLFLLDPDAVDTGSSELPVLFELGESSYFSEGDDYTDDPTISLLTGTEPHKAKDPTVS

[6] = inhibitors of firefly luciferase expression or activity, dose response, H4 neuroglioma cells, luminescence (AID 1990); format: functional, cell-based
[7] = Luminescence Cell-Based Dose Response HTS to Identify Inhibitors of 5'UTR Stem-Loop Driven Prion Protein mRNA Translation in H4 Neuroglioblastoma Cells. [Related pubchem assays: 1827 (Project Summary), 1813 (Primary HTS)]; format: functional
BJ [8] = experiment: cells; format: functional, cell-based; conditions: Homo sapiens
[9] = cytotoxicity toward DRD oncogenic fibroblasts, dose response, cell-based, non-viral oncogenic, luminescence (AID 1934); format: functional; conditions: Homo sapiens
BJ [10] = experiment: cytotoxicity toward BJ-TERT fibroblasts, dose response, cell-based, RAS-independent, luminescence (AID 1933); format: functional; conditions: Homo sapiens
BJ [11] = experiment: cytotoxicity toward BJ-TERT-LT-ST fibroblasts, dose response, cell-based, RAS-independent, luminescence (AID 1935); format: functional; conditions: Homo sapiens;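 also: BJ fibroblasts immortalized with TERT plus LT and ST oncogenes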
[12] = target: T4, Rac GTPase-activating protein 1 (Homo sapiens, UniProt Q9H0H5); experiment: MgcRacGAP GTPase-activating activity inhibitors, confirmation, biochemical, ADP Hunter fluorescence, primary and confirmatory (AID 624330); format: functional
T4 sequence (Q9H0H5 whole entry): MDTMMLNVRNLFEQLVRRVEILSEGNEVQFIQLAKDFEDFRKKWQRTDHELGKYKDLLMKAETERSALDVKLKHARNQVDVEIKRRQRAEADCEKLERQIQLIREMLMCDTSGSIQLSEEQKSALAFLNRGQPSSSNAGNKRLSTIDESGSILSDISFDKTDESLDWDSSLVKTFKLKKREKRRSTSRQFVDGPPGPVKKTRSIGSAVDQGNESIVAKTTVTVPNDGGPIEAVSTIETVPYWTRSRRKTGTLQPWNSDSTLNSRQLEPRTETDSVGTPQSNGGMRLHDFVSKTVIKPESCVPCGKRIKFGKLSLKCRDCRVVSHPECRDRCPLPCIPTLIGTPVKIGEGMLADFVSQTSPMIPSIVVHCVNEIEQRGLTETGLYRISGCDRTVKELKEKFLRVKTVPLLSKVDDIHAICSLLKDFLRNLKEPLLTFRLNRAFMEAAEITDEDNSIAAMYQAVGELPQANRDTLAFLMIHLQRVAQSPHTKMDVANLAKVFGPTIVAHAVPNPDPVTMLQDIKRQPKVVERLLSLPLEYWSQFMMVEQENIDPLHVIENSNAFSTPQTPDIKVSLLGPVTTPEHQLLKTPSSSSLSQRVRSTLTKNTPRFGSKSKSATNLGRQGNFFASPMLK

[13] = target: Glucose-6-phosphate 1-dehydrogenase (Homo sapiens, UniProt P11413); experiment: human G6PD enzyme inhibitors, dose response, selectivity assay for P. falciparum G6PD inhibitor project, biochemical, fluorescence (AID 504792); format: functional
Chain of Glucose-6-phosphate 1-dehydrogenase (P11413 whole entry): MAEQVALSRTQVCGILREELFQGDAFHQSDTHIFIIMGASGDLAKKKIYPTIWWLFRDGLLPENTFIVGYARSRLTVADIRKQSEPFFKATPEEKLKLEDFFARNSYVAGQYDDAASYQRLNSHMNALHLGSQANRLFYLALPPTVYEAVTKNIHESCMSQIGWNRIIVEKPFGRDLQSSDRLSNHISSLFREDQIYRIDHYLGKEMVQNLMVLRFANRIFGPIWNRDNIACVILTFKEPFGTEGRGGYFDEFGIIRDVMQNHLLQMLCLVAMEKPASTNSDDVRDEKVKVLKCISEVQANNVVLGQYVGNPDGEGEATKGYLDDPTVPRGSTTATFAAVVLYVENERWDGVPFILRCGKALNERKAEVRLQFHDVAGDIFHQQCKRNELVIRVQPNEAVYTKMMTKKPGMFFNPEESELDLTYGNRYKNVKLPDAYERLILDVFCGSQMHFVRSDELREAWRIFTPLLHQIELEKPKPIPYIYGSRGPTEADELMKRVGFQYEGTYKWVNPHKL

Chain of Nonstructural protein 1 (Q194T2 whole entry): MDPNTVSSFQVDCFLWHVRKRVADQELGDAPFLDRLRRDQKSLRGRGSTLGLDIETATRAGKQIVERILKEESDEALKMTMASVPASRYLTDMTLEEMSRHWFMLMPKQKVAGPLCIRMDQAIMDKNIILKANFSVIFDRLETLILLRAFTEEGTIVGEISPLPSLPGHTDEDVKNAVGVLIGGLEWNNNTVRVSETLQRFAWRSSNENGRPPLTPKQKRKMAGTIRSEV
Chain of Induced myeloid leukemia cell differentiation protein Mcl-1 (Q07820 whole entry): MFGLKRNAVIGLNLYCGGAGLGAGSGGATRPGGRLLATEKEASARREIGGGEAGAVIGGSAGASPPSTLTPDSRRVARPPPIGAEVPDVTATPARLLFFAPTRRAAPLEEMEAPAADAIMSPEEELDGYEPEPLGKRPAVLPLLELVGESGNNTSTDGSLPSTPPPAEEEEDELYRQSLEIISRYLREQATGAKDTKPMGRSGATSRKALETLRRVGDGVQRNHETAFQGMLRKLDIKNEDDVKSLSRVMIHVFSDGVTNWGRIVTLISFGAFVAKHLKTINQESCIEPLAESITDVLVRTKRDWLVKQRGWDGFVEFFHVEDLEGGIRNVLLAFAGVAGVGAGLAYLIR

Compound: Cc1ccc(N2C(=O)/C(=C\NNc3ccc(S(=O)(=O)N4CCOCC4)cc3[N+](=O)[O-])c3ccccc3C2=O)c(C)c1
- IC50 [1]: 1.8 µM (not active)
- IC50 [2]: 12.3 µM (active)
- IC50 (Nonstructural protein 1): 8.94 µM (active)

Compound: COc1cc(C(=O)N/N=C/c2cccc(Oc3ccccc3)c2)ccc1O
- CC50 (Vero): > 25 µM (active)

Compound: CC(C)c1ccc(/C=N/Nc2ccc(C(=O)O)cc2)cc1
- IC50 [3]: > 80 µM (inactive)
- AC50 [4]: 3.53 µM (active)
- EC50 [5]: < 0.16 µM (active)

Compound: O=C(CNC(=O)c1ccco1)N=Nc1c(O)n(CCc2ccccc2)c2ccccc12
- EC50 [6]: 12.2 µM (active)
- IC50 [3]: > 80 µM (inactive)
- EC50 [7]: > 120 µM (not active)
- EC50 (BJ [8]): 17.7 µM (active)
- EC50 [9]: 2.05 µM (active)
- EC50 (BJ [10]): 3.21 µM (active)
- EC50 (BJ [11]): 1.45 µM (active)
- CC50 (Vero): 2.46 µM (active)

Compound: CCn1c(SCc2nc(-c3ccc(Cl)cc3)no2)nnc1-c1ccco1
- IC50 [2]: 15.2 µM (active)

Compound: COc1cc(N)c2ncccc2c1OC
- IC50 [12]: 56.3 µM (active)
- IC50 [13]: > 80 µM (inactive)

Compound: COCc1cc(O)n2nc(C(C)(C)C)cc2n1
- IC50 [13]: > 80 µM (inactive)

Compound: CC/C(=C(/CC)c1ccc(O)cc1)c1ccc(O)cc1 [DIETHYLSTILBESTROL]
- IC50 [2]: 12.6 µM (active)
